Reference: patent US4921960A, “Quinoline thioethers” (priority 1987, dated 1990)

How the values were obtained:
[1] = tested on: pentametazol induced convulsions in rats; assay: Pentametazol induced convulsions; assay type: in vivo, rat; conditions: for Deaths of pretreated animals / Effect on pentametazol convulsions: 10 mg/kg prior to 120 mg/kg s.c. pentametazol
[2] = tested on: strychnine induced convulsions in rats; assay: Strychnine induced lethal convulsions; assay type: in vivo, rat
[3] = tested on: electroshock-induced convulsions in rats; assay: Electroshock-induced lethal convulsions; assay type: in vivo, rat
[4] = Acute toxicity, oral LD50; conditions: rat, in vivo, CFY rats, deaths within 48 h, Litchfield and Wilcoxon
Protocol: Acute toxicity was assessed on CFY rats (100-160 g). Groups of 10 rats were used. Compound A was administered orally (in volume of 10 ml/kg). The animals starved for 16 h before the experiment. Each dose was administered to a group of animals equally subdivided into males and females. Deaths occurring within 48 h were considered. LD50 values were calculated on the basis of the graphical method of Litchfield and Wilcoxon.

Male CFY rats = assay: "Conflict" test: water consumption of food-deprived rats without punishment and in punished situation (anti-anxiety versus sedative effect); assay type: in vivo, rat; conditions: for Sedative dose (numerator of ratio): as printed in b54 without unit, see Tables I and III; for Water consumption (ml) punished situation / Water consumption (ml) without punishment: 30 min prior; for Ratio between the sedative and anxiolytic dose: Tables I and III; for Anxiolytic effect in presence of RO-15-1788 (selective benzodiazepine receptor antagonist): Tables II and IV
Protocol: The essential strategy for measuring the anti-anxiety effecct of a drug is to check its activity in a conflict situation. We elicit a rewarded response, then suppress that response by punishing it when it occurs and the anti-anxiety effect is measured by the drug-induced increase in punished responding, whereas the sedative effect is measured by the drug-induced decrease of unpunished responding.
This means that when we circuit the drinking tube and the grid floor of the cage and the rat is regularly shocked by trying to drink, the very hungry animal, which cannot eat without drinking, is maximally forced to overcome the hindrance. This is a sensitive test to check the anti-anxiety effect of a compound.
Male CFY rats, weighing 230-250 g, fed with standard food pellets and supplied with tap water ad libitum, were kept under controlled standard environmental conditions (room temperature between 22°-24° C.) in groups of ten for two weeks until used in the experiment. The rats kept in single cages during starvation were deprived of food for 96 hours and supplied with tap water ad libitum before the experiment.
Another aspect of the selection of the animals for the experiment was their visible physical fitness and normal activity after starvation.
A clear Plexiglass box (39×27×12 cm) with a stainless-steel grid floor supplied with a tray for the food pellets and with a drinking tube was used for the experiment. The grid floor, the drinking tube and an electric stimulator (Grass S48) were connected and electric shocks in this circuit were delivered for 10 s duration with 20 s intervals. The parameters of the current (100 V; 25 ohm; 7.5 ms; 5 Hz) were empirically selected using those electric shocks which inhibited the water consumption of the very hungry rats to one third of the control (unpunished) level.
The rats spend one hour in the apparatus after 96 hours of food deprivation.
The drugs were administered parenterally in doses of 0.5 ml/100 g body weight. We refrained from the oral administration of the compounds because of the long term food deprivation.
The Student t-test was used for statistical analysis. The anxiolytic effect was established in punished animals and the sedative effect in unpunished rats.

benzodiazepine receptors = assay: In vitro binding, 3H-Diazepam displacement on rat brain membrane preparation; conditions: 2 nM 3H-Diazepam, rat cortex membranes; for Displacement of 3H-Diazepam from its receptor: 1 hr at 0-4 °C; for IC50 value: both drugs compared
Protocol: The in vitro binding of compound A in comparison to that of chlordiazepoxide was measured on rat brain membrane preparation. Male CFY rat cortex was homogenized in 0.32M sucrose using glass homogenizer with teflon pestle. Nucleus was spun down at 1000 g for 15 min. The supernatant was centrifuged at 40,000 g for 15 min. The pellet was homogenized in 5 mM TRIS-citrate buffer pH 7.1 by a Polytron P10 and it was lyzed for 15 min. at 0° C. After centrifugation at 40,000 g for 15 min. the pellet was taken up in 50 mM TRIS-citrate buffer pH 7.1 and kept overnight at -20° C. After thawing and centrifugation (40,000 g for 15 min.) the pellet was washed in 50 mM TRIS-citrate buffer pH 7.1 three times by centrifugation. The final pellet was taken up in the same buffer in 1:30 volume. Ligand: 2 nM ^3 H-Diazepam (sp. act. 86 Ci/mmol).
Incubation: 1 hr at 0°-4° C. in 50 mM TRIS-citrate buffer ph 7.1
Final protein concentration: ca. 0.5 mg/ml.
The binding was stopped by dilution with cold buffer and rapid filtration on GF/B Whatman filter paper.
For the displacement we used six different concentrations of drugs, run with 3 parallels. Experiments were repeated two times. Compound A was dissolved in cc. acetic acid and distilled water then the 10^-3 M solution was further diluted with incubation buffer. Blank solution was prepared in the same way without containing the drug. Chlordiazepoxide was dissolved in the incubation buffer.

[5] = tested on: picrotoxin induced convulsions in rats; assay type: in vivo, rat
[6] = pretreatment 200 mg/kg, 120 mg/kg s.c. pentametazol
[7] = up to the oral dose of 200 mg/kg, rats
[8] = chlordiazepoxide 0.05 mg/kg s.c.
[9] = chlordiazepoxide 0.1 mg/kg s.c.
[10] = chlordiazepoxide 0.25 mg/kg s.c.
[11] = chlordiazepoxide 0.5 mg/kg s.c.
[12] = chlordiazepoxide 2.5 mg/kg s.c.

Compound: CN1C(=O)CN=C(c2ccccc2)c2cc(Cl)ccc21 [diazepam]
- Deaths of pretreated animals [1]: none of the pretreated animals died
- Effect on pentametazol convulsions [1]: mitigated the convulsions
- Animals died ([2]; 10 mg/kg, strychnine 2.5 mg/kg s.c.): 80%
- Rats whose life was saved ([3]; electroshock-induced lethal convulsions, dose not given): 80%

Compound: CCSc1c(N)cnc2cc(Cl)ccc12.Cl [compound A, 3-amino-4-ethylthio-7-chloro-quinoline-hydrochloride]
- LD50 at 48 h [4]: 465 mg/kg
- Water consumption (ml) in punished situation (Male CFY rats; Table IV: compound A 5 μg/kg s.c. + RO 15-1788 10 mg/kg i.p.): 3.1 ± 0.69 mL
- Water consumption (ml) in punished situation (Male CFY rats; Table IV: compound A 5 μg/kg s.c. + RO 15-1788 20 mg/kg i.p.): 2.4 ± 0.39 mL
- Water consumption (ml) in punished situation (Male CFY rats; Table IV: compound A 5 μg/kg s.c., RO 15-1788 none): 4.2 ± 0.37 mL
- Sedative dose (numerator of ratio) (Male CFY rats): 2.5
- Water consumption (ml) punished situation (Male CFY rats; compound A 0.25 mg/kg s.c.): 3.0 ± 0.27 mL
- Water consumption (ml) without punishment (Male CFY rats; compound A 0.25 mg/kg s.c.): 7.7 ± 0.45 mL
- Water consumption (ml) punished situation (Male CFY rats; compound A 2.5 mg/kg s.c.): 1.9 ± 0.35 mL
- Water consumption (ml) without punishment (Male CFY rats; compound A 2.5 mg/kg s.c.): 4.9 ± 0.91 mL
- Water consumption (ml) punished situation (Male CFY rats; compound A 2.5 γ/kg s.c.): 2.2 ± 0.32 mL
- Water consumption (ml) without punishment (Male CFY rats; compound A 2.5 γ/kg s.c.): 6.3 ± 0.46 mL
- Water consumption (ml) punished situation (Male CFY rats; compound A 5 γ/kg s.c.): 3.8 ± 0.19 mL
- Water consumption (ml) without punishment (Male CFY rats; compound A 5 γ/kg s.c.): 6.4 ± 0.33 mL
- Water consumption (ml) punished situation (Male CFY rats; compound A 25 γ/kg s.c.): 3.7 ± 0.44 mL
- Water consumption (ml) without punishment (Male CFY rats; compound A 25 γ/kg s.c.): 7.9 ± 0.58 mL
- Anti-anxiety potency relative to chlordiazepoxide (Male CFY rats; conflict test): about 20 times
- Ratio between the sedative and anxiolytic dose (Male CFY rats; conflict test): 500
- Anxiolytic effect in presence of RO-15-1788 (selective benzodiazepine receptor antagonist) (Male CFY rats; conflict test): antagonized
- Displacement of 3H-Diazepam from its receptor (benzodiazepine receptors): concentration dependent manner
- IC50 value (benzodiazepine receptors): in the same range of concentration
- Influence on the anticonvulsant effect of diazepam (10 mg/kg) ([1]; compound A 200 mg/kg): no influence
- Severity of the pentametazol convulsions [1, 6]: did not change
- Survival of pretreated animals [1, 6]: none of the pretreated animals survived
- Protection against pentametazol induced convulsions [1, 7]: ineffective
- Influence on strychnine induced lethal convulsions ([2]; up to the 200 mg/kg dose level, strychnine 2.5 mg/kg s.c.): not influenced at all
- Protection against strychnine induced convulsions [2, 7]: ineffective
- Influence on picrotoxin induced lethal convulsions ([5]; pretreated rats, picrotoxin 10 mg/kg s.c.): remained unchanged
- Protection against picrotoxin induced convulsions [5, 7]: ineffective
- Animals died ([3]; 200 mg/kg, electroshock-induced lethal convulsions): 70%
- Protection against electroshock-induced convulsions [3, 7]: only slightly effective

Compound: CNC1=Nc2ccc(Cl)cc2C(c2ccccc2)=[N+]([O-])C1 [chlordiazepoxide]
- Water consumption (ml) in punished situation (Male CFY rats; Table II: chlordiazepoxide 0.1 mg/kg s.c. + RO 15-1788 5 mg/kg i.p.): 4.1 ± 0.59 mL
- Water consumption (ml) in punished situation (Male CFY rats; Table II: chlordiazepoxide 0.1 mg/kg s.c. + RO 15-1788 10 mg/kg i.p.): 3.9 ± 0.43 mL
- Water consumption (ml) in punished situation (Male CFY rats; Table II: chlordiazepoxide 0.1 mg/kg s.c. + RO 15-1788 20 mg/kg i.p.): 2.8 ± 0.49 mL
- Water consumption (ml) in punished situation (Male CFY rats; Table II: chlordiazepoxide 0.1 mg/kg s.c., RO 15-1788 none): 4.1 ± 0.31 mL
- Sedative dose (numerator of ratio) (Male CFY rats): 10
- Water consumption (ml) punished situation (Male CFY rats; [8]): 3.5 ± 0.47 mL
- Water consumption (ml) without punishment (Male CFY rats; [8]): 5.1 ± 0.56 mL
- Water consumption (ml) punished situation (Male CFY rats; [9]): 4.1 ± 0.31 mL
- Water consumption (ml) without punishment (Male CFY rats; [9]): 5.8 ± 0.42 mL
- Water consumption (ml) punished situation (Male CFY rats; [10]): 3.5 ± 0.62 mL
- Water consumption (ml) without punishment (Male CFY rats; [10]): 6.2 ± 0.37 mL
- Water consumption (ml) punished situation (Male CFY rats; [11]): 3.1 ± 0.54 mL
- Water consumption (ml) without punishment (Male CFY rats; [11]): 7.4 ± 0.77 mL
- Water consumption (ml) punished situation (Male CFY rats; chlordiazepoxide 1 mg/kg s.c.): 2.7 ± 0.58 mL
- Water consumption (ml) without punishment (Male CFY rats; chlordiazepoxide 1 mg/kg s.c.): 5.4 ± 0.68 mL
- Water consumption (ml) punished situation (Male CFY rats; [12]): 4.1 ± 0.39 mL
- Water consumption (ml) without punishment (Male CFY rats; [12]): 5.2 ± 0.72 mL
- Water consumption (ml) punished situation (Male CFY rats; chlordiazepoxide 5 mg/kg s.c.): 2.5 ± 0.31 mL
- Water consumption (ml) without punishment (Male CFY rats; chlordiazepoxide 5 mg/kg s.c.): 5.4 ± 0.62 mL
- Water consumption (ml) punished situation (Male CFY rats; chlordiazepoxide 10 mg/kg s.c.): 1.6 ± 0.26 mL
- Water consumption (ml) without punishment (Male CFY rats; chlordiazepoxide 10 mg/kg s.c.): 1.8 ± 0.30 mL
- Ratio between the sedative and anxiolytic dose (Male CFY rats; conflict test): 100
- Anxiolytic effect in presence of RO-15-1788 (selective benzodiazepine receptor antagonist) (Male CFY rats; conflict test): antagonized
- Sedative dose range (Male CFY rats; subcutaneous, conflict test, unpunished rats): 10 mg/kg
- Displacement of 3H-Diazepam from its receptor (benzodiazepine receptors): concentration dependent manner
- IC50 value (benzodiazepine receptors): in the same range of concentration

Compound: CCC1(c2ccccc2)C(=O)NC(=O)NC1=O [phenobarbital Na]
- Deaths of pretreated animals [1]: none of the pretreated animals died
- Effect on pentametazol convulsions [1]: mitigated the convulsions
- Animals died ([2]; 50 mg/kg, strychnine 2.5 mg/kg s.c.): 40%
- Animals died ([5]; 50 mg/kg, picrotoxin 10 mg/kg s.c.): 80%
- Protection against electrogenic convulsions ([3]; 30-50 mg/kg): completely protected
